Molecules are shown by their SMILES. Active and inactive are the calls of the source. Cut-off read from the data, not from the text of the source: actives have a measured IC50 and inactives only a lower limit.

In the assay the target is Envelope glycoprotein gp160 (Human immunodeficiency virus 1, UniProt Q6QLK5). Nature of the assay: inhibitors of HIV fusion peptide binding, primary screen, biochemical, uHTS, fluorescence dequenching (AID 1986).
Sequence of Envelope glycoprotein gp160 (Q6QLK5 whole entry, the tested form may be a part): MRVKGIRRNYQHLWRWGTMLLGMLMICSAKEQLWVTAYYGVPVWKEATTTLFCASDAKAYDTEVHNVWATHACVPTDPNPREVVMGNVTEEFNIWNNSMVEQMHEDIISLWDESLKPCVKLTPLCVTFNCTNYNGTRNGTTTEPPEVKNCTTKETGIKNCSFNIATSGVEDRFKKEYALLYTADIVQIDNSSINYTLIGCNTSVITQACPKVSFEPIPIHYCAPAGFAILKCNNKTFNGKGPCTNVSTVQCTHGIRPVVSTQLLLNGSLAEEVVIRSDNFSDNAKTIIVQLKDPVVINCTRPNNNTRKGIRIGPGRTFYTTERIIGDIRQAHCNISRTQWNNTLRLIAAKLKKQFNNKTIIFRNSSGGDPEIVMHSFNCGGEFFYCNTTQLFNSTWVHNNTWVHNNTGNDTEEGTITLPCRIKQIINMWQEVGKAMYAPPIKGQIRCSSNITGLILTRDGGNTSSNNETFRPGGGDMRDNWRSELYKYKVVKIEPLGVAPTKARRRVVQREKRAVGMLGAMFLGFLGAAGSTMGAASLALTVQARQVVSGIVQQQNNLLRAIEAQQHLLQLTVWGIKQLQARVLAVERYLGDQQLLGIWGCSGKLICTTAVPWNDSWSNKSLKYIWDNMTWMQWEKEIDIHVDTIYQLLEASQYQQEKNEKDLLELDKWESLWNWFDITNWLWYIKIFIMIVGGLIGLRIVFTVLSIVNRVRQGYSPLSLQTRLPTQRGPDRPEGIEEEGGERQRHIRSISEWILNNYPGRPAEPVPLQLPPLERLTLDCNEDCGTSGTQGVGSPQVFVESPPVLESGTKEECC
As a reminder, the IC50 is the concentration at which inhibition is half-maximal. In the case of `O=C(COc1ccc(Cl)cc1Cl)Nc1ccc(C(=O)Nc2ccccc2C(=O)O)cc1`, the IC50 was 9.54 µM (active).
In the case of `COc1cc(NS(=O)(=O)c2ccc(NC(=S)NC(=O)c3sc4ccccc4c3Cl)cc2)nc(OC)n1`, the IC50 is 16.5 µM (active).
Regarding `CC(C)S(=O)(=O)C1=NSC2=NC(=O)/C(=C\c3ccc(-c4cccc(C(=O)O)c4)o3)C(=N)N21`, the IC50 was 18.3 µM (active).
Take `CCCCCC#CCC#CCC#CCC#CCCCC(=O)O`: the IC50 is 11.9 µM (active).

Values taken from ChEMBL document CHEMBL1201862, “PubChem BioAssay data set” (2004).
